Test results reported in US20150265558A1, “TREATMENT OF ADHD” (BTG International Limited, priority 2004, published 2015).

Legend:
freely moving rat = details: cited from earlier work; for effect on alpha2 frequencies: Dimpfel et al., 1987
[1] = system: Fisher rats (frontal cortex, hippocampus, striatum, reticular formation); assay: Tele-Stereo-EEG: electrical power of four brain areas in freely-moving rats after single i.p. dose; type: in vivo, rat
From the text: Analysis of brain field potentials (“Tele-Stereo-EEG”) has been proven to be a very sensitive tool for the characterization of drug effects on the central nervous system (Dimpfel et al., 1986). After administration of a centrally active drug, quantitative changes in the brain field potentials can be considered as a characteristic fingerprint of that particular drug. “Fingerprints” of more than 100 compounds have been obtained including 8 established drug categories, e.g. stimulants, sedatives, hallucinogenics, tranquilizers, analgesics, antidepressants, neuroleptics, and narcotics. Different dosages of the same drug cause quantitative changes in electrical power. […] Direct comparison with specific reference drugs, or by discriminant analysis with reference to an extensive fingerprint database, permits the detection of any possible similarities with established drugs. In general, “fingerprints” show prominent differences for drugs prescribed for different indications and are similar for drugs with the same indication (Dimpfel, 2003). Furthermore, the pattern of EEG changes in the rat is a useful tool in predicting possible changes in the EEG power spectrum in humans.
Adult Fisher rats (4-6 month of age and day—night converted, bodyweight approximately 400 g) were implanted with 4 bipolar concentric steel electrodes using a stereotaxic surgical procedure. According to the coordinates of Paxinos and Watson (1982), all four electrodes were placed 3 mm lateral within the left hemisphere. Anterior coordinates were 12.2, 5.7, 9.7 and 3.7 mm for frontal cortex, hippocampus, striatum and reticular formation, respectively. A baseplate carrying the electrodes and a 5-pin-plug was fixed to the skull by dental cement attached to 3 steel screws fixed into the skull. Animals were given two weeks for recovery from the surgical procedure.
EEG signals were recorded from frontal cortex, hippocampus, striatum and reticular formation and were amplified and processed as described by Dimpfel et al. (1986). After automatic artifact rejection, signals were collected in sweeps of 4 s duration and submitted to Fast Fourier transformation. The resulting electrical power spectra were divided into 6 frequency ranges: delta (0.8-4.5 Hz); theta (4.75-6.75 Hz); alpha1 (7.00-9.50 Hz); alpha2 (9.75-12.50 Hz); beta (12.75-18.50 Hz); beta2 (18.75-35.00 Hz). […] In an off-line procedure spectra were averaged to give 15 minute or longer periods for further statistical analysis.
Four doses of KTX 0101 (sodium (R)-3-hydroxybuytrate: 100, 300, 600 and 1000 mg/kg body weight) (supplied by Solvias AG, CH 4002 Basel, Switzerland, batch No: SO-1058.047.1.120) and a vehicle control (0.9% w/v saline) were administered intraperitoneally to a group of 12 animals using a crossover design with at least 3 drug holidays in between the applications. After a pre-drug period of 45 minutes for baseline recording, drug effects were observed continuously for 300 minutes. Changes of electrical power (uV2/W) are expressed as percentage of the 45 minute pre-drug values. Multivariate statistics were calculated according to Ahrens and Läuter (1974).

[2] = Plasma determination of (R)-3-hydroxybutyrate after i.p. injection; type: in vivo, Sprague-Dawley rats
Experimental: (§1) One hundred and seventy-one male Sprague-Dawley rats (weight range 200-250 g) housed on a standard […] were used. Animals had free access to a standard pelleted rat diet and tap water at all times. KTX 0101 (sodium (R)-3-hydroxybuytrate; 100, 300, 600 and 1000 mg/kg body weight) supplied by Sigma (H6501, Lot 111K2618) was administered by intraperitoneal injection. Control animals received the appropriate 0.9% saline vehicle via the same route. Animals were killed by CO2 asphyxiation 0 h, 0.5 h, 1.0 h or 2.0 h after dosing and a terminal blood sample was collected by cardiac puncture. Blood was taken in lithium heparinised tubes and kept on ice prior to centrifugation to yield the plasma samples for analysis.
Commercial clinical assay kits for the determination of D-β-hydroxybutyrate were obtained from Randox Laboratories (Antrim, UK). The kit quantified NADH via the activity of β-hydroxybutyrate dehydrogenase measured as an increase in OD340 nm. An alkaline pH is necessary to drive the reaction equilibrium towards the production of NADH and acetoacetate.
This spectrophotometric assay was modified for application to a 96 well microplate format. The reaction rate was then determined from the increase in OD340 nm over a 1 minute time course, after allowing a necessary period for the reaction rate to settle.

[3] = Plasma determination of acetoacetate after i.p. injection; type: in vivo, Sprague-Dawley rats; details: 30 min after dosing
Experimental: as §1
The assay developed for the determination of acetoacetate was based on previously published clinical assays (Li et al, 1980; McMurray et al, 1984). A different assay buffer was prepared (0.1M Na2PO4 adjusted to pH 7.0 with HCl) in order to shift the equilibrium of the reaction to production of […] and NAD+, Other modifications included the additional use of sodium oxalate at a final assay concentration of 20 mM to inhibit lactate dehydrogenase (LDH) present in the plasma samples. […]
Acetoacetate was measured via the reduction in OD340 nm over a 1 minute period after allowing for the reaction rate to settle.

For `Clc1cccc(Cl)c1N=C1NCCN1` [clonidine], the “effect on theta activity” value (freely moving rat; Dimpfel and Schober, 2001) is listed as “increase”.
With `C[C@@H](O)CC(=O)[O-].[Na+]` [KTX 0101, sodium (R)-3-hydroxybuytrate] the “duration of EEG effects” value ([1]; 100 mg/kg i.p.) was 1 to 2 h, the “statistical significance of EEG changes” value ([1]; 100 mg/kg i.p.) was “not statistically significant” and the “pattern of change in EEG electrical power” value ([1]; 100 mg/kg i.p., all regions) was “decrease of electrical power mainly with regard to alpha2”. For the same compound, the “duration of EEG pattern of changes” value ([1]; 300 mg/kg ip) was 2 h, the “pattern of change in EEG electrical power” value ([1]; 300 mg/kg ip) was “decreases in alpha2 power throughout all brain regions” and the “statistical significance of EEG changes” value ([1]; 300 mg/kg ip) was “only statistically significant in the reticular formation”. The “duration of EEG effects” value ([1]; 600 mg/kg ip, generally, except reticular formation) was 2 h, the “duration of decreases in power in the reticular formation” value ([1]; 600 mg/kg ip, reticular formation) was “persisted throughout the third hour” and the “statistical significance of EEG changes” value ([1]; 600 mg/kg ip, incl. first hour in striatum and all 24 variables overall) was “statistically significant”. For the same compound, the “duration of decreases of power” value ([1]; 1000 mg/kg) was “lasting into the third hour”, the “pattern of change in EEG electrical power” value ([1]; 1000 mg/kg) was “more prominent decreases of power” and the “duration of decreases of power in the reticular formation” value ([1]; 1000 mg/kg, reticular formation, total experimental time) was 5 h. For the same compound, the “statistical significance of EEG changes” value ([1]; 1000 mg/kg, even for the 4th hour within the reticular formation) was “statistically significant”, the “brain regions with significant EEG changes” value ([1]; 2 highest doses (600 and 1000 mg/kg)) was “significant changes were also observed in the frontal cortex, hippocampus and striatum” and the “similarity of qEEG fingerprint to drug classes by discriminant analysis” value ([1]; 24 variables, 20th to 50th min after single-dose application) was “close proximity to the dopaminergic psychostimulants, d-amphetamine and cocaine”. The EEG frequencies affected ([1]; 100 to 1000 mg/kg i.p.) was “all frequencies, except for the beta2 range”, the “period of greatest changes in EEG patterns” value ([1]; after injection) was 5 to 65 min and the “EEG changes, summary” value ([1]; dose range of 300 to 1000 mg/kg ip) was “clear, dose- and time-dependent statistically significant changes”. For the same compound, the “plasma concentration of (R)-3-hydroxybutyrate” value ([2]; 100, 300, 600 and 1000 mg/kg ip) was “clear dose-dependent increases”, the “time of highest elevation in plasma (R)-3-hydroxybutyrate” value ([2]; 100-1000 mg/kg ip, first sample) was 30 min and the “time to return of plasma (R)-3-hydroxybutyrate to control values” ([2]; after injection) was ≤ 1 h. For the same compound, the “plasma concentration of acetoacetate” value ([3]; 600 mg/kg) was “significantly increased” and the “plasma concentration of acetoacetate” value ([3]; 1000 mg/kg) was “significantly increased”.
For `N[C@@H](Cc1ccc(O)c(O)c1)C(=O)O` [L-DOPA], the “effect on alpha2 frequencies” value (freely moving rat) is given as “decrease alpha2 frequencies”.
For `CC(N)Cc1ccccc1` (stereo not drawn) [amphetamine], the “effect on alpha2 frequencies” value (freely moving rat) is listed as “decrease alpha2 frequencies”.
For `Oc1cc2c(cc1O)C(c1ccccc1)CNCC2` (stereo not drawn) [SKF 38393], the “effect on alpha2 frequencies” value (freely moving rat) is given as “decrease alpha2 frequencies”.
